Experimental data reported in US6107345A, “Benzocyclobutane compounds” (Adir et Compagnie, priority 1998, dated 2000).

Experiments:
serotonin reuptake sites = target: T1, serotonin reuptake sites (Rattus norvegicus, UniProt P31652); test: Determination of the affinity for serotonin reuptake sites ([3H]-paroxetine competition); assay type: binding; details: frontal cortex membranes, 1.0 nM [3H]-paroxetine, 2 hours at 25° C., pH 7.4; read-out: pKi, serotonin reuptake sites (converted)
T1 construct: The membranes are prepared from frontal cortex of rate; from tissue; host or cells: frontal cortex membranes (rat, printed 'rate')
T1 sequence (P31652 whole entry): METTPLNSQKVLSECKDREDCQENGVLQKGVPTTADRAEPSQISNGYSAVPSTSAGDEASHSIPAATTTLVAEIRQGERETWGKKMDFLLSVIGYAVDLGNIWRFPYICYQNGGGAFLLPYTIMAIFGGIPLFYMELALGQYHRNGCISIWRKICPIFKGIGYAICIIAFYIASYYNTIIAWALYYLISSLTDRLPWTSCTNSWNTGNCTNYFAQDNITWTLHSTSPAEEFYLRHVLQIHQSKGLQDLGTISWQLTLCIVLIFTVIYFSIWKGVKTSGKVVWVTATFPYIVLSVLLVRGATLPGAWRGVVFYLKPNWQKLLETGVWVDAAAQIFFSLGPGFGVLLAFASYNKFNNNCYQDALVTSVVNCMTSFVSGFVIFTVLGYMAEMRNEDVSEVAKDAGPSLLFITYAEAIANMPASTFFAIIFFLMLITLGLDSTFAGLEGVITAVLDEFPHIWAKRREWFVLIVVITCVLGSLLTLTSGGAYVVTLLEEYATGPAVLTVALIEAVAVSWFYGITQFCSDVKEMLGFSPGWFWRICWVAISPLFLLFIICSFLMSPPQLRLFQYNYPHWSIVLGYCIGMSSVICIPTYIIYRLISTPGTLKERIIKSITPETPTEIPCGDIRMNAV
Experimental: Determination of the affinity for serotonin reuptake sites
The incubation buffer contains […] TRIS-HCl (pH 7.4), 120 mM NaCl and 5 mM KCl. The non-specific binding is determined using 10 μM citalopram. At the end of the incubation, the incubation medium is filtered and washed three times with 5 ml of cooled buffer. The radioactivity retained on the filters is determined by liquid scintillation counting. The binding isotherms are analysed by non-linear regression to determine the IC50 values. Those values are converted into a dissociation constant (Ki) using the Cheng-Prusoff equation: […]
(§1) The results are expressed in pKi (-log Ki).

mouse [1] = test: Suspension-by-the-tail test in the mouse; assay type: in vivo; details: for Immobility: 6 minutes of the test
Excerpt: Suspension-by-the-tail test in the mouse
In this variation of the forced swimming test, the state of despair is induced in the mouse by suspending it head down by its tail. Placed in that uncomfortable situation, the animal struggles vigorously to start with and then adopts an immobile posture. Antidepressant products reduce the duration of immobility of the animal.
The animals are male NMRI (IFFA-CREDO) mice (22-26 g) which are housed, in groups of 20, in transparent plastic cages (59×38×20 cm) on sawdust, with food and drink as desired. On the day of the test, each mouse is placed in a separate cage as soon as it has been treated (sub-cutaneously) with the product or the solvent. Thirty minutes later, the animal is suspended by the tail from a hook using an adhesive tape attached to the tail. The hook is connected to a tension sensor which transmits all the animal's movements to a central processor ([…]-TST 1 system, ITEM-LABO, France). The total duration (sec.) of immobility of the animal during the 6 minutes of the test is recorded automatically.
The differences in the duration of immobility between the treated groups (product) and the control group (solvent) are analysed statistically by ANOVA followed by Dunnett's test, wherein p<0.05.

mouse [2] = test: Forced swimming test in the mouse; assay type: in vivo; details: for Duration of immobility: last 4 minutes (T2-T6)
Experimental: Forced swimming test in the mouse (Porsolt et al., 1977)
The forced swimming test in the mouse consists of inducing a state of despair in the animal by placing it for 6 minutes in a cylinder full of water, from which it cannot escape. The naive animal struggles vigorously for the first few minutes and then adopts an immobile posture for the last few minutes of the test. Antidepressant products reduce the duration of immobility of the animal during the test.
the animals are male CD (IFFA-CREDO) mice (22-26 g) which, on the day before the test, are placed individually in transparent plastic cages (25×15×14 cm) on sawdust, with food and drink as desired. On the day of the test, 30 minutes after treatment (product or solvent, administered sub-cutaneously), each mouse is plunged for 6 minutes (T0-T6) in a glass cylinder (23.5 cm in height, 11.5 cm in diameter) filled to a height of 6 centimeters with water maintained at 24±0.5° C. The total duration of immobility (sec.) of the animal during the last 4 minutes of the test (T2-T6) is observed: a mouse is considered to be immobile when it is floating in the water, making only small movements to keep its head out of the water.
The differences between the treated groups (product) and the control group (solvent) are evaluated statistically by variance analysis followed by Dunnett's test wherein p<0.05.

[3] = target: T2, noradrenaline reuptake sites (Rattus norvegicus, UniProt Q63380); test: Determination of the affinity for noradrenaline reuptake sites ([3H]-nisoxetine competition); assay type: binding; details: frontal cortex membranes, 2 nM [3H]-nisoxetine, 4 hours at 4° C., pH 7.4; read-out: pKi, noradrenaline reuptake sites (converted)
T2 construct: The membranes are prepared from frontal cortex of rat; from tissue; host or cells: rat frontal cortex membranes
T2 sequence (Q63380 1-617): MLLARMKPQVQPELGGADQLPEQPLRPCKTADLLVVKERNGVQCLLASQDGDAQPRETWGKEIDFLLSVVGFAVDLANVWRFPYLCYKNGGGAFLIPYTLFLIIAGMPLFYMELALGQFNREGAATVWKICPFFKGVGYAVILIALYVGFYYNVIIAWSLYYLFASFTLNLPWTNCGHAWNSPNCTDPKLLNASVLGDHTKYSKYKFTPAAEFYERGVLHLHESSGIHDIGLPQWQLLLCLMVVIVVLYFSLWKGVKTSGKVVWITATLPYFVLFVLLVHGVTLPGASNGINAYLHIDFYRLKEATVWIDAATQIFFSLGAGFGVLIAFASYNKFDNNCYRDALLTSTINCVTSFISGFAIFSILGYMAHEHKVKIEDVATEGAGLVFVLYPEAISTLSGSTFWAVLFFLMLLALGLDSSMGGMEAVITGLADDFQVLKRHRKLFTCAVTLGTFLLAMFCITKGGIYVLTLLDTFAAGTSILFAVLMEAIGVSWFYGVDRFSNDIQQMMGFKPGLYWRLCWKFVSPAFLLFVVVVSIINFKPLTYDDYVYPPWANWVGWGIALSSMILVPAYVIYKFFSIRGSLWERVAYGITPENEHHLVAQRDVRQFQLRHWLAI
Experimental: The binding isotherms are analysed by non-linear regression to determine the IC50 values. Those values are converted into a dissociation constant (Ki) using the Cheng-Prusoff equation: […]
as §1

With COc1ccc2c(c1)C(CN(C)C)(C1(O)CCCCC1)C2 (single isomer, unassigned; (-)) [Example 8, (-)-Isomer of 1-(N,N-dimethylaminomethyl)-1-(1-hydroxycyclohex-1-yl)-5-methoxybenzocyclobutane] as the molecule, how does the Ki (serotonin reuptake sites) read?
The Ki was 2 nM.

How did the “Immobility, %/control” value (mouse [1]; 0.63 mg/kg s.c.) turn out when COc1ccc2c(c1)C(CN(C)C)(C1(O)CCCCC1)C2 (stereo not drawn) [Example 3, 1-(N,N-Dimethylaminomethyl)-1-(1-hydroxycyclohex-1-yl)-5-methoxybenzocyclobutane] was run?
Its value is 88%.

What about the Immobility (mouse [1]; 0.63 mg/kg s.c.) of the same molecule?
Its Immobility is 70.4 ± 13.5 s.

What about the “Immobility, %/control” value (mouse [1]; 2.5 mg/kg s.c.) of the same molecule?
The value was 51%.

And the Immobility (mouse [1]; 2.5 mg/kg s.c.)?
The Immobility was 41.1 ± 9.6 s.

What about the “Immobility, %/control” value (mouse [1]; 10.0 mg/kg s.c.) of the same molecule?
Its value is 35%.

What about the Immobility (mouse [1]; 10.0 mg/kg s.c., * p < 0.05) of the same molecule?
The Immobility was 27.8 ± 9.6 s.

How did the “Duration of immobility, %/control” value (mouse [2]; 0.63 mg/kg s.c.) turn out when COc1ccc2c(c1)CC2(CN(C)C)C1(O)CCCCC1 (stereo not drawn) [Example 4, 1-(N,N-Dimethylaminomethyl)-1-(1-hydroxycyclohex-1-yl)-4-methoxybenzocyclobutane] was run?
Its value is 94%.

And the Duration of immobility (mouse [2]; 0.63 mg/kg s.c.)?
The Duration of immobility was 157.3 ± 18.9 s.

What about the “Duration of immobility, %/control” value (mouse [2]; 2.5 mg/kg s.c.) of the same molecule?
The value was 61%.

And the Duration of immobility (mouse [2]; 2.5 mg/kg s.c.)?
Its Duration of immobility is 101.6 ± 57.3 s.

What about the “Duration of immobility, %/control” value (mouse [2]; 10.0 mg/kg s.c.) of the same molecule?
Its value is 4%.

What about the Duration of immobility (mouse [2]; 10.0 mg/kg s.c., * p < 0.05) of the same molecule?
Its Duration of immobility is 6.1 ± 6.1 s.

With COc1cccc2c1C(CN(C)C)(C1(O)CCCCC1)C2 (stereo not drawn) [Example 9, 1-(N,N-Dimethylaminomethyl)-1-(1-hydroxycyclohex-1-yl)-6-methoxybenzocyclobutane] as the molecule, how does the Ki [3] read?
The Ki was 56.2 nM.

With CNCCC(Oc1ccc(C(F)(F)F)cc1)c1ccccc1 (stereo not drawn) [fluoxetine, reference compound] as the molecule, how does the “Duration of immobility, %/control” value (mouse [2]; 2.5 mg/kg s.c.) read?
The value was 94%.

And the “Duration of immobility, %/control” value (mouse [2]; 10.0 mg/kg s.c.)?
Its value is 75%.

What about the “Duration of immobility, %/control” value (mouse [2]; 40.0 mg/kg s.c.) of the same molecule?
Its value is 73%.

What about the “Immobility, %/control” value (mouse [1]; 40.0 mg/kg s.c.) of the same molecule?
The value was 91%.

And the Immobility (mouse [1]; 40.0 mg/kg s.c.)?
Its Immobility is 69.9 ± 17.8 s.

And the “Immobility, %/control” value (mouse [1]; 80.0 mg/kg s.c.)?
The value was 110%.

What about the Immobility (mouse [1]; 80.0 mg/kg s.c.) of the same molecule?
The Immobility was 84.3 ± 12.4 s.
